In the NIST ThermoML archive (doi:10.1021/je1001329):
Numbers after ± are expanded uncertainties.

What was measured:
[1] = 298.15 K, Ring tensiometer
[2] = xn = mol fraction of the nth substance listed; settings: 298.15 K, Ring tensiometer

CC#N [acetonitrile]
Settings | surface tension liquid-gas [mN/m]
[1] | 27.76 ± 0.54

CC#N [acetonitrile] + CC(C)O
[2]
Settings | surface tension liquid-gas [mN/m]
x1 = 0.2001 | 21.05 ± 0.5
x1 = 0.3621 | 21.55 ± 0.5
x1 = 0.4885 | 22.15 ± 0.5
x1 = 0.5398 | 22.44 ± 0.51
x1 = 0.6001 | 22.88 ± 0.51
x1 = 0.7 | 23.84 ± 0.52
x1 = 0.8001 | 24.94 ± 0.52
x1 = 0.8984 | 26.23 ± 0.53
x1 = 0.9579 | 27.1 ± 0.54
x1 = 0.9701 | 27.28 ± 0.54
x1 = 0.9851 | 27.55 ± 0.54

CC#N [acetonitrile] + O
[2]
Settings | surface tension liquid-gas [mN/m]
x2 = 0.2032 | 29.46 ± 0.55
x2 = 0.4087 | 30.95 ± 0.57
x2 = 0.5149 | 31.45 ± 0.57
x2 = 0.6041 | 31.68 ± 0.57
x2 = 0.7459 | 32.92 ± 0.58
x2 = 0.8145 | 33.97 ± 0.59
x2 = 0.8773 | 37.97 ± 0.62
x2 = 0.8977 | 39.63 ± 0.63
x2 = 0.905 | 40.54 ± 0.64
x2 = 0.9484 | 49.39 ± 0.72
x2 = 0.9702 | 55.92 ± 0.79
x2 = 0.9851 | 62.36 ± 0.85

CC(C)O [propan-2-ol]
Settings | surface tension liquid-gas [mN/m]
[1] | 20.95 ± 0.5

CC(C)O [propan-2-ol] + O
[2]
Settings | surface tension liquid-gas [mN/m]
x2 = 0.099 | 21.65 ± 0.5
x2 = 0.2949 | 21.97 ± 0.5
x2 = 0.5018 | 22.28 ± 0.51
x2 = 0.5993 | 22.74 ± 0.51
x2 = 0.7021 | 23.28 ± 0.51
x2 = 0.8 | 24.37 ± 0.52
x2 = 0.8502 | 25.04 ± 0.52
x2 = 0.8991 | 26.64 ± 0.53
x2 = 0.945 | 32.36 ± 0.58
x2 = 0.9598 | 35.83 ± 0.61
x2 = 0.9697 | 39.36 ± 0.64

O [water]
Settings | surface tension liquid-gas [mN/m]
[1] | 72.09 ± 0.93
